Laboratory results taken from patent US11584727B2, “2-thioxothiazolidin-4-one derivatives active as transthyretin ligands and uses thereof” (BSIM Therapeutics, S.A., priority 2014, dated 2023).

How the values were obtained:
[1] = target: Val122Ile transthyretin (V122I-TTR) (Homo sapiens, UniProt P02766, V142I); assay: V122I-TTR amyloid fibril formation assay (turbidimetry, acid-induced); assay type: biochemical; conditions: pH 4.4, 72 hours; for Fibril Formation (%): V122I-TTR 3.6 μM, 37° C.; for IC50: V122I-TTR fixed at 3.6 μM, ten compound concentrations
Procedure: (§1) The first set of evaluations is based on a fast, stagnant fibril formation assay that is used for the early screening of compounds, be they virtual screening hits or newly synthesized analogues. In this assay, a solution of the compound under test at 1.8, 3.6 or 7.2 μM is added to a solution of TTR at 3.6 μM, so that there is enough compound to bind to either one or both of TTR's binding sites. The pH of the resulting solution is then lowered to 4.4 to promote amyloidogenesis. The process of amyloid fibril formation over time is assessed by turbidimetry measurements at three different wavelengths (405, 450 and 490 nm, or at 550, 600 and 650 nm when the compound absorbs light at the previous wavelengths), using a spectrophotometer endowed with a BioTek microplate reader. The extent of fibril formation of each mixture is determined by normalizing a sample with the protein (TTR), in absence of compounds, which, at the end of 72 hours, represents 100% of amyloid fibril formation. In each experiment, each compound concentration is tested in triplicate. For each compound concentration and incubation time, the arithmetic mean of the triplicate experiments is calculated, as well as the arithmetic mean of the three measured wavelengths. High activity can be defined as a percentage of fibril formation below 10% at compound concentration 7.2 μM (TTR:compound stoichiometry 1:2) and below 40% at 3.6 μM (TTR:compound stoichiometry 1:1).
(§2) Purchased virtual screening hits and all synthesized (optimization) derivatives were dissolved in DMSO to a final concentration of 10.8 mM to provide a primary stock solution. Several secondary stock solutions were prepared in DMSO by dilution of the primary stock solution and the concentrations were chosen depending on the effectiveness of the compound in inhibiting the TTR amyloid fibril formation.
(§3) The fibril formation assay was adapted to run in a high-throughput screening mode. For this purpose, 96-well microplates were used with a final assay volume of 100 μL.
(§4) One microLitre (μL) of different compound secondary stock solutions was added to 50 μL of a 7.2 μM wild type TTR (WT-TTR) or Val122Ile-TTR (V122I-TTR) solutions in 10 miliMolar (mM) sodium phosphate buffer, 100 mM KCl and 1 mM EDTA, pH 7.2, previously dialyzed against the same buffer solution. After 30 minutes of incubation at room temperature, the pH of the mixture was lowered to 4.4 with 49 μL of 200 mM acetate buffer, 100 mM KCl and 1 mM EDTA, pH 4.3.
(§5) The mixtures were incubated at 37° C. during 72 hours. Turbidity at 405 nm, 450 nm and 490 nm (or at 550, 600 and 650 nm when the test compound absorbs light at the previous wavelengths) was measured over time (0, 17, 24, 41, 48, 65 and 72 hours) using a BioTek Microplate Spectrophotometer to evaluate the extent of fibril formation. Immediately before the turbidity measurements, the mixtures were gently shacked during 1 minute to homogenize well and not damage the formed amyloid aggregates and fibrils. The final turbidity was calculated as an average of the three wavelengths measured.
In addition, control samples containing TTR with no inhibitor and 1% DMSO, as well as inhibitor in absence of TTR were tested and analyzed.
The extent of amyloid fibril formation data was normalized to TTR in the absence of inhibitor, assigned to be 100% fibril formation (or 0% amyloid inhibition) at the end of the experiment.
The extent of amyloid fibril formation throughout 72 hours was determined as described in the “Evaluation of amyloid inhibition in vitro” subsection above.
IC50 values were calculated from the inhibition curves obtained by fitting the values by a nonlinear curve method using the OriginPro7 (OriginLab Corporation, USA).

[2] = target: T1, wild type transthyretin (WT-TTR) (Homo sapiens, UniProt P02766); assay: WT-TTR amyloid fibril formation assay (turbidimetry, acid-induced); assay type: biochemical; conditions: pH 4.4, 72 hours; for Fibril Formation (%): WT-TTR 3.6 μM, 1:1 TTR-compound stoichiometry, 37° C., normalized to no-compound control (100%); for IC50: WT-TTR fixed at 3.6 μM, ten compound concentrations
T1 construct: made in house; host or cells: E. coli BL21 (DE3), pET23a plasmid
Procedure: as §1
The in vitro activity of the compounds was assessed through a biochemical assay based on turbidimetry measurements, in which fibril formation is induced by acidification of the solution to pH 4.4 after incubation with the hit compound to be tested. The amount of amyloid fibrils formed is then monitored throughout 72 hours. Further details on this assay are provided in the “Evaluation of amyloid inhibition in vitro” subsection in “Materials and Methods”.
Experimental evaluation of the in vitro activity of virtual screening hits against amyloid fibril formation by TTR was carried out using a biochemical assay based on turbidimetry measurements. In this assay, fibril formation is induced by acidification of the solution to pH 4.4 after incubation with the hit compound to be tested. The amount of amyloid fibrils formed is monitored over 72 hours. Further details on the assay are provided in the “Evaluation of amyloid inhibition in vitro” subsection below.
as §2, §3, §4
as §5, with “fibrils.” for “fibrils. The final turbidity was calculated as an average of the three wavelengths measured.”

[3] = HepG2 cell viability, resazurin reduction assay; assay type: cell-based; conditions: human, HepG2 hepatoma cells, approximately 72 hours incubation, read-out: inhibitory dose (ID50), cell viability
From the text: Cell viability of HepG2 hepatoma cells was quantified in order to assess the toxicity of the compounds at increasing concentrations. The used assay is described in detail in the “Experimental Evaluation of Cytotoxicity of Compounds using Cell-based Assays” section in “Materials and Methods”. This is a relevant assessment not just to discard potential concerns of liver damage (which is a problem reported for many drugs) but also because of the long-term nature of the treatments that patients suffering from TTR-mediated amyloidoses need to undertake.
Adherent human hepatoma cells HepG2 were cultured in DMEM (Dulbecco's Modified Eagle's Medium) with 10% fetal bovine serum (FBS), 100 U/mL penicillin, […] streptomycin, and 1 mM sodium pyruvate. The cells were grown in 75 cm^2 culture flasks at 37° C., in an atmosphere of 5% CO2, and subcultured twice a week using a trypsin-EDTA solution.
Upon 3 to 4 days of growth and reaching approximately 90% confluence, HepG2 cells were plated in 96-well microplates with cell density of 12×10^3 cells/well and in a volume of 100 μL per well.
The compounds are dissolved in DMSO and subsequently diluted in DMEM (in 9 intermediate […] concentrations). After adhesion of HepG2 cells to the microplates, […] 100 μL of each solution of intermediate compound concentration were added to each well (in quadruplicate). Positive controls were done with 10 wells containing only cells; solvent controls resulted from the analysis of the three highest DMSO concentrations tested and were carried out in triplicate.
After addition of the compounds to the cells, the microplates were incubated for approximately 72 hours at 37° C. in an atmosphere of 5% CO2 until the cell viability assay was performed.
The cell viability of HepG2 cells in the presence of test compounds was assessed by the resazurin reduction assay. Resazurin is a redox indicator that is converted into resorufin through reduction reactions of metabolically active cells. In the oxidized form it presents a purplish blue color, while the reduced form presents a purple-pink color.
A stock solution of 0.01% resazurin in PBS is diluted 1:10 in incomplete RPMI 1640 cell medium (without addition of antibiotics and FBS). After washing the cells with 200 μL PBS containing Ca^2+ and Mg^2+, 200 μL of resazurin 0.001% are added to the wells. Control runs with incomplete RPMI 1640 medium only and (without cells) are done in triplicate. […]
To quantify the reduction of resazurin to resorufin, microplate absorbance readings were taken at two wavelengths, 540 nm (reduced form) and 630 nm (oxidized form), in a Biotek spectrophotometer microplate reader. The percentage of viable cells at each compound concentration is determined using the formula: […]

| SMILES | melting point | Fibril Formation (%) [1] | IC50 [1] | Fibril Formation (%) [2] | IC50 [2] | inhibitory activity against TTR amyloid fibril formation compared with reference compounds (in words) ([2]; TTR 3.6 μM) | IC50 at 72 h [3] |
| --- | --- | --- | --- | --- | --- | --- | --- |
| O=C(O)CN1C(=O)/C(=C/c2cc(F)cc(F)c2)SC1=S [AT50-A12, (Z)-3-hydroxycarbonylmethyl-5-(3′,5′-difluorophenylmethylidene)-2-thioxothiazolidin-4-one] | 225 to 227 °C | 91% | 7800 nM | 44% | 2880 ± 240 nM | – | – |
| O=C(O)CN1C(=O)/C(=C/c2cc(O)c(O)c(Cl)c2)SC1=S [AT50-A01, (Z)-5-(3′-chloro-4′,5′-dihydroxyphenylmethylidene)-3-hydroxycarbonylmethyl-2-thioxothiazolidin-4-one] | 241 to 242 °C | 29% | 2340 nM | 12% | 1450 ± 40 nM | – | – |
| O=C(O)CN1C(=O)/C(=C/c2cc(F)c(O)c(F)c2)SC1=S [AT50-A06, (Z)-3-hydroxycarbonylmethyl-5-(3′,5′-difluoro-4′-hydroxyphenylmethylidene)-2-thioxothiazolidin-4-one] | 221 to 222 °C | – | – | 28% | 1810 ± 400 nM | – | > 400 µM |
| O=C(O)CCCN1C(=O)/C(=C/c2cc(Cl)c(O)c(Cl)c2)SC1=S [AT50-C10, (Z)-5-(3′,5′-dichloro-4′-hydroxyphenylmethylidene)-3-(3′-hydroxycarbonylpropyl)-2-thioxothiazolidin-4-one] | 247 to 249 °C | 37% | 2460 nM | 27% | 1870 ± 160 nM | – | – |
| O=C(O)CN1C(=O)/C(=C/c2cc(Cl)cc(Cl)c2)SC1=S [AT50-A05, (Z)-3-hydroxycarbonylmethyl-5-(3′,5′-dichlorophenylmethylidene)-2-thioxothiazolidin-4-one] | 272 to 273 °C | 28% | 2320 nM | 17% | 1620 ± 130 nM | – | – |
| Cc1cc(/C=C2\SC(=S)N(CCCC(=O)O)C2=O)cc(C)c1O [AT50-C11, (Z)-5-(4′-hydroxy-3′,5′-dimethylphenylmethylidene)-3-(3′-hydroxycarbonylpropyl)-2-thioxothiazolidin-4-one] | 250 to 252 °C | 66% | 4520 nM | 26% | 2430 ± 1250 nM | – | – |
| O=C(O)CCCN1C(=O)/C(=C/c2cc(F)c(O)c(F)c2)SC1=S [AT50-C09, (Z)-5-(3′,5′-difluoro-4′-hydroxyphenylmethylidene)-3-(3′-hydroxycarbonylpropyl)-2-thioxothiazolidin-4-one] | 207 to 209 °C | 48% | 3190 nM | 33% | 2450 ± 350 nM | – | – |

The next lines start with results.

| melting point | Fibril Formation (%) [1] | IC50 [1] | Fibril Formation (%) [2] | IC50 [2] | inhibitory activity against TTR amyloid fibril formation compared with reference compounds (in words) ([2]; TTR 3.6 μM) | SMILES | IC50 at 72 h [3] |
| --- | --- | --- | --- | --- | --- | --- | --- |
| 245 to 247 °C | 55% | 4370 nM | 26% | 1950 ± 260 nM | – | O=C(O)CCN1C(=O)/C(=C/c2cc(Cl)cc(Cl)c2)SC1=S [AT50-C14, (Z)-3-(2′-hydroxycarbonylethyl)-5-(3′,5′-dichlorophenylmethylidene)-2-thioxothiazolidin-4-one] | – |
| 216 to 217 °C | 36% | 2600 nM | 32% | 2310 ± 450 nM | – | O=C(O)CCN1C(=O)/C(=C/c2cc(F)c(O)c(F)c2)SC1=S [AT50-C13, (Z)-5-(3′,5′-difluoro-4′-hydroxyphenylmethylidene)-3-(2′-hydroxycarbonylethyl)-2-thioxothiazolidin-4-one] | – |
| 253 to 254 °C | 41% | 2710 nM | 24% | 2290 ± 130 nM | – | Cc1cc(/C=C2\SC(=S)N(CCC(=O)O)C2=O)cc(C)c1O [AT50-C16, (Z)-3-(2′-hydroxycarbonylethyl)-5-(4′-hydroxy-3′,5′-dimethylphenylmethylidene)-2-thioxothiazolidin-4-one] | – |
| 259 to 260 °C | 17% | 1620 nM | 7% | 1030 ± 100 nM | superior to that of 2OH-PCB80 | O=C(O)CCN1C(=O)/C(=C/c2cc(Cl)c(O)c(Cl)c2)SC1=S [AT50-C15, (Z)-3-(2′-hydroxycarbonylethyl)-5-(3′,5′-dichloro-4′-hydroxyphenylmethylidene)-2-thioxothiazolidin-4-one] | – |
